The results in this text go back to patent US20090208747A1, “Novel Crystalline Methods and Novel Crystalline and Amorphous forms of Halogenated Sugars” (V.B. MEDICARE PVT. LTD, priority 2006, published 2009).

A short description of data set [1]: Analysis against JECFA specifications: solubility. In kind it is physicochemical. The note with it: in ethyl acetate.
Data set [2] is described as follows: Stability testing as per ICH Guideline Q1A(R2), storage stability. It is filed as physicochemical. The note with it: for Appearance: storage condition not given. The text has this:
Stability testing was done as per ICH Harmonised Tripaertite Guideline Stability Testing of New drug substances and Products Q1A(R2) issued by International Conference on Hamonization of technical requirements for registration of pharmaceuticals for human use and recommended for adoption at Step 4 of the ICH Process on 6 Feb.
Details are given on table nos 1 to 4 given in the following: […]

A short description of data set [3]: Accelerated stability test, sealed containers incubated at 50° C. In kind it is physicochemical. Particulars: sealed container. The protocol:
For extrapolating potential storage stability beyond one year, an accelerated storage stability test was conducted. In this test, crystalline TGS of small and large mean particle size was incubated at 50° C. in sealed containers. Percent assay and pH were tested after each 24 hours for five successive days. […] A three days' stability in accelerated stability test is extrapolated by Catani et al (2005) to 8 years of storage stability at ambient temperature.
All the three samples were taken in sealed containers and were incubated at 50° C. […]

A short description of another data set: Particle size analysis. The note with it: for particle size distribution at 90%: 90% of particles below this size.
Setting [4] is: Fourth day, listed as Amorphous TGS.

Molecules are shown by their SMILES. A value given as a limit tells only on which side of the number the result lay.

Description for Particle size analysis: The TGS crystals obtained were tested for purity and particle size.
The solids obtained were tested for purity, particle size and X ray diffraction for the nature of solid obtained.

For `OC[C@H]1O[C@H](O[C@]2(CCl)O[C@H](CCl)[C@@H](O)[C@@H]2O)[C@H](O)[C@@H](O)[C@H]1Cl` [Amorphous TGS small particle size, 1′-6′-Dichloro-1′-6′-DIDEOXY-β-Fructofuranasyl-4-chloro-4-deoxy-galactopyranoside], the Solubility entry in data set [1] is “water. Slightly”. The Assay in data set [2] (25° C. ± 2° C. 60% RH ± 5% RH, 1st month) is 99.34%; in data set [2] (25° C. ± 2° C. 60% RH ± 5% RH, 2nd month), 99.36%; in data set [2] (25° C. ± 2° C. 60% RH ± 5% RH, 3rd month), 99.32%; in data set [2] (25° C. ± 2° C. 60% RH ± 5% RH, 4th month), 99.36%; in data set [2] (25° C. ± 2° C. 60% RH ± 5% RH, 5th month), 99.28%; in data set [2] (25° C. ± 2° C. 60% RH ± 5% RH, 6th month), 99.23%. The Assay in data set [2] (25° C. ± 2° C. 60% RH ± 5% RH, 12th month) is 99.22%; in data set [2] (25° C. ± 2° C. 60% RH ± 5% RH, 24th month), 99.14%; in data set [2] (30° C. ± 2° C. 65% RH ± 5% RH, 1st month), 99.84%; in data set [2] (30° C. ± 2° C. 65% RH ± 5% RH, 2nd month) it was 99.84%; in data set [2] (30° C. ± 2° C. 65% RH ± 5% RH, 3rd month), 99.62%; in data set [2] (30° C. ± 2° C. 65% RH ± 5% RH, 4th month) it was 99.65%. Moreover, the Assay in data set [2] (30° C. ± 2° C. 65% RH ± 5% RH, 5th month) was 99.58%; in data set [2] (30° C. ± 2° C. 65% RH ± 5% RH, 6th month) it was 99.53%; in data set [2] (30° C. ± 2° C. 65% RH ± 5% RH, 12th month) it was 99.62%; in data set [2] (30° C. ± 2° C. 65% RH ± 5% RH, 24th month), 99.32%; in data set [2] (40° C. ± 2° C. 75% RH ± 5% RH, 1st month) it was 99.68%; in data set [2] (40° C. ± 2° C. 75% RH ± 5% RH, 2nd month), 99.65%. The Assay in data set [2] (40° C. ± 2° C. 75% RH ± 5% RH, 3rd month) is reported as 99.67%; in data set [2] (40° C. ± 2° C. 75% RH ± 5% RH, 4th month), 99.58%; in data set [2] (40° C. ± 2° C. 75% RH ± 5% RH, 5th month) it was 99.52%; in data set [2] (40° C. ± 2° C. 75% RH ± 5% RH, 6th month) it was 99.46%; in data set [2] (40° C. ± 2° C. 75% RH ± 5% RH, 12th month), 99.52%; in data set [2] (40° C. ± 2° C. 75% RH ± 5% RH, 24th month), 99.12%. Besides, the Assay in data set [2] (INITIAL (printed in the 40° C. ± 2° C. 75% RH ± 5% RH column)) amounted to 99.70%. Moreover, the stability in storage result in data set [2] (storage) was “stable for at least one year in storage”. For the same compound, the Appearance entry in data set [2] (1st month), in data set [2] (2nd month), in data set [2] (3rd month), in data set [2] (4th month), in data set [2] (5th month) and in data set [2] (6th month) was “Normal” throughout. The Appearance entry in data set [2] (12th month), in data set [2] (24th month) and in data set [2] (INITIAL) was “Normal” each time. Moreover, the “stability compared to the crystalline form” value in data set [2] (table 4) was “much more stable”. In addition, the PH in data set [3] (Fifth day) is 7.06; in data set [3] (First day), 7.03; in data set [3] (setting [4]) it was 7.02; in data set [3] (Second day) it was 7.03; in data set [3] (Sixth day), 7.05. Further, the “Assay (%)” value in data set [3] (Fifth day, listed as Amorphous TGS) worked out at 98.19%; in data set [3] (First day, listed as Amorphous TGS), 98.21%; in data set [3] (setting [4]), 98.18%; in data set [3] (Second day, listed as Amorphous TGS), 98.20%; in data set [3] (Sixth day, listed as Amorphous TGS), 98.17%; in data set [3] (Third day, listed as Amorphous TGS), 98.24%. Besides, the “decline in percent assay” value in data set [3] (in first three days, listed as Amorphous form) is on record as 0.08%; in data set [3] (in first three days, listed as amorphous form), 0.08%. In data set [3] (over three days), the “decline in pH” value stood at 0.08 units. Further, the entries for the “particle size distribution at 90%” value in the data set “Particle size analysis” (listed as Example 3) and in “Particle size analysis” (listed as amorphous product) were “below 6 microns” and “less than 6 microns”, respectively. Besides, the largest particle size in “Particle size analysis” (listed as amorphous form) is ≤ 14 microns.

Take `OC[C@H]1O[C@H](O[C@]2(CCl)O[C@H](CCl)[C@@H](O)[C@@H]2O)[C@H](O)[C@@H](O)[C@H]1Cl` [Example 4, 1′-6′-Dichloro-1′-6′-DIDEOXY-β-Fructofuranasyl-4-chloro-4-deoxy-galactopyranoside]: the “particle size distribution at 90%” value in the data set “Particle size analysis” is given as < 95 microns.

For the compound `OC[C@H]1O[C@H](O[C@]2(CCl)O[C@H](CCl)[C@@H](O)[C@@H]2O)[C@H](O)[C@@H](O)[C@H]1Cl` [1′-6′-Dichloro-1′-6′-DIDEOXY-β-Fructofuranasyl-4-chloro-4-deoxy-galactopyranoside], the “Assay (%)” value in data set [3] (Fifth day) is 96.86%; in data set [3] (First day) it was 98.73%; in data set [3] (Fourth day), 97.06%; in data set [3] (Second day), 98.21%; in data set [3] (Sixth day) it was 96.72%; in data set [3] (Third day) it was 97.53%. The PH in data set [3] (Fifth day) turned out to be 7.00; in data set [3] (First day), 7.08; in data set [3] (Fourth day) it was 7.00; in data set [3] (Second day) it was 7.08; in data set [3] (Sixth day) it was 7.02; in data set [3] (Third day) it was 7.02. For the same compound, the “decline in percent assay” value is on record as 1.87% in data set [3] (by fifth day); 2.01% in data set [3] (by sixth day); 1.2% in data set [3] (in first three days, listed as large particle size crystalline TGS). Besides, the “difference in pH” value in data set [3] (over the test period) is on record as “not substantial”. Besides, in “Particle size analysis” (listed as Example 5), the “particle size distribution at 90%” value is on record as “below 240 microns”. Besides, the mean particle size result in the data set “Particle size analysis” (listed as Crystalline TGS (big particle size)) is listed as “about 35 micron”.

With `OC[C@H]1O[C@H](O[C@]2(CCl)O[C@H](CCl)[C@@H](O)[C@@H]2O)[C@H](O)[C@@H](O)[C@H]1Cl` [Example 6, 1′-6′-Dichloro-1′-6′-DIDEOXY-β-Fructofuranasyl-4-chloro-4-deoxy-galactopyranoside], the “particle size distribution at 90%” value in the data set “Particle size analysis” is “below 12 microns”.
